The values below are quoted from earlier work in US20100184765A1, “Protein Kinase Inhibitors and Methods for Using Thereof” (IRM LLC, priority 2007, published 2010).

The data set has as its target Flt-1 (Homo sapiens, UniProt P17948). The settings on record: VEGF binding to Flt-1, literature report.

Sequence of Flt-1 (P17948 27-1338, species assumed): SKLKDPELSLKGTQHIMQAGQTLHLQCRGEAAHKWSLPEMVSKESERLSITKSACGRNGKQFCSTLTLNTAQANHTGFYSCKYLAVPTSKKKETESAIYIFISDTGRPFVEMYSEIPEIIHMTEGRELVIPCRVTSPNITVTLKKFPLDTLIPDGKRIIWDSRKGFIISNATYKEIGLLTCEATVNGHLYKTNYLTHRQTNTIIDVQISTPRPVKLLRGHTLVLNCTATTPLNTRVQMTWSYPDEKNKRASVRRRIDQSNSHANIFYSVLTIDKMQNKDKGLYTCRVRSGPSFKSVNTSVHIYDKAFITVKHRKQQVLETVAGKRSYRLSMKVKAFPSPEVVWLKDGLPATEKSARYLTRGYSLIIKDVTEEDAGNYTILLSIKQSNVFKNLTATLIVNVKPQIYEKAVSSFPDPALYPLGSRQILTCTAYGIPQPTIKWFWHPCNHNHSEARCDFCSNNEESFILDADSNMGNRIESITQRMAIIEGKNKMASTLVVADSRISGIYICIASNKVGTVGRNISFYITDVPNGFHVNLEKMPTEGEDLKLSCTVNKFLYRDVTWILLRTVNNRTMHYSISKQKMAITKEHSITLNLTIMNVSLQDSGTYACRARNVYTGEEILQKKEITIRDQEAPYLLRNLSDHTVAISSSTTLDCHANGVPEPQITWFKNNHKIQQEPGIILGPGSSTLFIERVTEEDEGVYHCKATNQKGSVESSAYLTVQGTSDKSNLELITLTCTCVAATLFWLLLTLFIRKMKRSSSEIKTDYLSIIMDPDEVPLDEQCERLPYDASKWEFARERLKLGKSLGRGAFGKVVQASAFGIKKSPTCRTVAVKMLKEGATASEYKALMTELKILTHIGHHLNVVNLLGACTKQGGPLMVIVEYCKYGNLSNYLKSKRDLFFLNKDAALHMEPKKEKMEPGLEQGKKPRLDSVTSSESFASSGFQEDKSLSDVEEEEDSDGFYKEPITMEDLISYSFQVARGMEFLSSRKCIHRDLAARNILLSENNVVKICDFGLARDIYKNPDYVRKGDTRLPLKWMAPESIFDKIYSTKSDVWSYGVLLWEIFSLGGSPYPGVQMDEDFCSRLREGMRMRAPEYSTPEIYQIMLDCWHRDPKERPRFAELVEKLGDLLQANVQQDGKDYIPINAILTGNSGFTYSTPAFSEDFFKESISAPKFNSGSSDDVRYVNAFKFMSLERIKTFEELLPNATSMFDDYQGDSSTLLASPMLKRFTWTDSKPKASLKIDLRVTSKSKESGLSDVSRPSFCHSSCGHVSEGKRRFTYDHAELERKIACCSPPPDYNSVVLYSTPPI

VEGF: the Kd is 0.02 nM.

What is called Kd is the constant that tells how readily two partners part at equilibrium.
